Measured values taken from article PMC10682951, “Structure-function and rational design of a spider toxin Ssp1a at human voltage-gated sodium channel subtypes” (Frontiers in Pharmacology, 2023).
Bridge positions count the residues as written; N and C are the ends. Peptide text beside a SMILES is read from it.

Columns and labels:
Assay type in all cases: cell-based
hNaV1.3 = molecular target: T1, hNaV1.3 (Homo sapiens, UniProt Q9NY46); test: Automated whole-cell patch-clamp (QPatch 16X), hNaV1.3; settings: for IC50: HEK293 cells expressing hNaV1.3 + β1 subunit, QPatch 16X, holding −80 mV, step to 0 mV, peptide incubated 2 min, 0.1% BSA, mean, SEM and n (3-12)
T1 construct: host or cells: HEK293
T1 sequence (Q9NY46 whole entry): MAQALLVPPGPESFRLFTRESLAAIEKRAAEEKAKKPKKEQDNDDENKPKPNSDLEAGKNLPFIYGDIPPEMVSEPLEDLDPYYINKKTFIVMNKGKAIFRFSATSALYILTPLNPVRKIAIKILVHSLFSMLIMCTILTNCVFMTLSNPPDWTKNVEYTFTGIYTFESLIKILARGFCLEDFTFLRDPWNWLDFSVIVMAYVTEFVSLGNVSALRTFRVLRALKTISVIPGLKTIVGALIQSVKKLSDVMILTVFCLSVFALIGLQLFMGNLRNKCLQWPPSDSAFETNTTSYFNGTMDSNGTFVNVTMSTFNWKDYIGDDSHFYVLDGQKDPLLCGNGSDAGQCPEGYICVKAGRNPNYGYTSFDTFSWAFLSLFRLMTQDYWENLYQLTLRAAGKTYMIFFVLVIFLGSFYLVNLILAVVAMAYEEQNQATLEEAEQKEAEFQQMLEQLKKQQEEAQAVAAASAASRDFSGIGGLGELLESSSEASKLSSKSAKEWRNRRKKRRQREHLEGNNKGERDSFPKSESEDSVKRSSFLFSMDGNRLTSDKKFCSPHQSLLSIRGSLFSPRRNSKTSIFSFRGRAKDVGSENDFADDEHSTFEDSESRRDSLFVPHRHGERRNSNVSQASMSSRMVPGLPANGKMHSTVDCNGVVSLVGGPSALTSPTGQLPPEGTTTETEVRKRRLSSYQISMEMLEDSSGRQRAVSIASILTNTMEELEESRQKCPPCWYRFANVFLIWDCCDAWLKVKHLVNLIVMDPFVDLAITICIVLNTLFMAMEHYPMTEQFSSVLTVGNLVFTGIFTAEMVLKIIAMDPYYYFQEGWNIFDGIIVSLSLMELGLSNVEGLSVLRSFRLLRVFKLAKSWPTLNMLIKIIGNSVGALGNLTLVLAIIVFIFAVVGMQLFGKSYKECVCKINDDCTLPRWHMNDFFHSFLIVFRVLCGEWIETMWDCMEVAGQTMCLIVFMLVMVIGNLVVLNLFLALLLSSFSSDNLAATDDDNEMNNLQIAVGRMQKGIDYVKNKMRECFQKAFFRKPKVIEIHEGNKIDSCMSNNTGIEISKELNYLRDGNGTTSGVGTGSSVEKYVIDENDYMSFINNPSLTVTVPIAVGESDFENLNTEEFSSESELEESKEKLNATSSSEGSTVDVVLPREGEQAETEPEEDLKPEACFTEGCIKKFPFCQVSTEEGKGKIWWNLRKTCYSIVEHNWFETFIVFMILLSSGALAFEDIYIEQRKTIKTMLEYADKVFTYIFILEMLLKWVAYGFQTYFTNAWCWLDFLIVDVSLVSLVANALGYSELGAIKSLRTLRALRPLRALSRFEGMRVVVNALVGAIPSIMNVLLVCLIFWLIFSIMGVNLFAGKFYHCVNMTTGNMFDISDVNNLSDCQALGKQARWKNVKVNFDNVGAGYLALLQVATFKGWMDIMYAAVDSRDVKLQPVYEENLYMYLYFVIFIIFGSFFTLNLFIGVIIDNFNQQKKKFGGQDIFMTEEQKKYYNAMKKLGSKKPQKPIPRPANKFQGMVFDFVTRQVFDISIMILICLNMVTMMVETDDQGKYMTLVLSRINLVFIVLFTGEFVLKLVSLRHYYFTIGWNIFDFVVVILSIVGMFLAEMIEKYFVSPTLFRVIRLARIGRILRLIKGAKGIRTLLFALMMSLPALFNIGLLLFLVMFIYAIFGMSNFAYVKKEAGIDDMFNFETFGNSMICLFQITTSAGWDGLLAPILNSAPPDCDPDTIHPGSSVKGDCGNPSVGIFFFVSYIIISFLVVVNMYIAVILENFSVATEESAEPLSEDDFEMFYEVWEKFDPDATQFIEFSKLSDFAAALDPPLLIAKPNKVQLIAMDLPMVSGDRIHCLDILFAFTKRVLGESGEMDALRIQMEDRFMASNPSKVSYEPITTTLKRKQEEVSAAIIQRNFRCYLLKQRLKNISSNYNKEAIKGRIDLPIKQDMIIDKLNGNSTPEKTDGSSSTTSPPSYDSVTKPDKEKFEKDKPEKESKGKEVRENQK
T1 sequence (Q07699 19-218, further chain): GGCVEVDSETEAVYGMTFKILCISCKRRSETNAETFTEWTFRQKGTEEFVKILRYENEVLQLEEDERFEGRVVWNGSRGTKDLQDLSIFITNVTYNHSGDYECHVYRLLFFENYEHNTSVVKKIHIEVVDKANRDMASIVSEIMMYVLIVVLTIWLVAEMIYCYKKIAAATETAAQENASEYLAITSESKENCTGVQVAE
In short: (§1)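 HEK293 cells stably expressing the channel (human subtypes with β1 subunit), held at −80 mV; 2 min peptide pre-incubation, then 20 ms steps to 0 mV after a 200 ms −120 mV conditioning pulse. Extracellular pH 7.3 with 20 mM TEA-Cl, CsF-based pipette solution, 0.1% BSA; IC50 from four-parameter Hill fit.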

hNaV1.2 = molecular target: T2, hNaV1.2 (Homo sapiens, UniProt Q99250); test: Automated whole-cell patch-clamp (QPatch 16X), hNaV1.2; settings: for IC50: HEK293 cells expressing hNaV1.2 + β1 subunit, QPatch 16X, holding −80 mV, step to 0 mV, peptide incubated 2 min, 0.1% BSA, mean, SEM and n (2-7); for Loss (reduction) in potency vs rSsp1a at hNaV1.2: relative to wild type rSsp1a
T2 construct: host or cells: HEK293
T2 sequence (Q07699 19-218): as the sequence (Q07699 19-218, further chain) above
T2 sequence (Q99250 whole entry): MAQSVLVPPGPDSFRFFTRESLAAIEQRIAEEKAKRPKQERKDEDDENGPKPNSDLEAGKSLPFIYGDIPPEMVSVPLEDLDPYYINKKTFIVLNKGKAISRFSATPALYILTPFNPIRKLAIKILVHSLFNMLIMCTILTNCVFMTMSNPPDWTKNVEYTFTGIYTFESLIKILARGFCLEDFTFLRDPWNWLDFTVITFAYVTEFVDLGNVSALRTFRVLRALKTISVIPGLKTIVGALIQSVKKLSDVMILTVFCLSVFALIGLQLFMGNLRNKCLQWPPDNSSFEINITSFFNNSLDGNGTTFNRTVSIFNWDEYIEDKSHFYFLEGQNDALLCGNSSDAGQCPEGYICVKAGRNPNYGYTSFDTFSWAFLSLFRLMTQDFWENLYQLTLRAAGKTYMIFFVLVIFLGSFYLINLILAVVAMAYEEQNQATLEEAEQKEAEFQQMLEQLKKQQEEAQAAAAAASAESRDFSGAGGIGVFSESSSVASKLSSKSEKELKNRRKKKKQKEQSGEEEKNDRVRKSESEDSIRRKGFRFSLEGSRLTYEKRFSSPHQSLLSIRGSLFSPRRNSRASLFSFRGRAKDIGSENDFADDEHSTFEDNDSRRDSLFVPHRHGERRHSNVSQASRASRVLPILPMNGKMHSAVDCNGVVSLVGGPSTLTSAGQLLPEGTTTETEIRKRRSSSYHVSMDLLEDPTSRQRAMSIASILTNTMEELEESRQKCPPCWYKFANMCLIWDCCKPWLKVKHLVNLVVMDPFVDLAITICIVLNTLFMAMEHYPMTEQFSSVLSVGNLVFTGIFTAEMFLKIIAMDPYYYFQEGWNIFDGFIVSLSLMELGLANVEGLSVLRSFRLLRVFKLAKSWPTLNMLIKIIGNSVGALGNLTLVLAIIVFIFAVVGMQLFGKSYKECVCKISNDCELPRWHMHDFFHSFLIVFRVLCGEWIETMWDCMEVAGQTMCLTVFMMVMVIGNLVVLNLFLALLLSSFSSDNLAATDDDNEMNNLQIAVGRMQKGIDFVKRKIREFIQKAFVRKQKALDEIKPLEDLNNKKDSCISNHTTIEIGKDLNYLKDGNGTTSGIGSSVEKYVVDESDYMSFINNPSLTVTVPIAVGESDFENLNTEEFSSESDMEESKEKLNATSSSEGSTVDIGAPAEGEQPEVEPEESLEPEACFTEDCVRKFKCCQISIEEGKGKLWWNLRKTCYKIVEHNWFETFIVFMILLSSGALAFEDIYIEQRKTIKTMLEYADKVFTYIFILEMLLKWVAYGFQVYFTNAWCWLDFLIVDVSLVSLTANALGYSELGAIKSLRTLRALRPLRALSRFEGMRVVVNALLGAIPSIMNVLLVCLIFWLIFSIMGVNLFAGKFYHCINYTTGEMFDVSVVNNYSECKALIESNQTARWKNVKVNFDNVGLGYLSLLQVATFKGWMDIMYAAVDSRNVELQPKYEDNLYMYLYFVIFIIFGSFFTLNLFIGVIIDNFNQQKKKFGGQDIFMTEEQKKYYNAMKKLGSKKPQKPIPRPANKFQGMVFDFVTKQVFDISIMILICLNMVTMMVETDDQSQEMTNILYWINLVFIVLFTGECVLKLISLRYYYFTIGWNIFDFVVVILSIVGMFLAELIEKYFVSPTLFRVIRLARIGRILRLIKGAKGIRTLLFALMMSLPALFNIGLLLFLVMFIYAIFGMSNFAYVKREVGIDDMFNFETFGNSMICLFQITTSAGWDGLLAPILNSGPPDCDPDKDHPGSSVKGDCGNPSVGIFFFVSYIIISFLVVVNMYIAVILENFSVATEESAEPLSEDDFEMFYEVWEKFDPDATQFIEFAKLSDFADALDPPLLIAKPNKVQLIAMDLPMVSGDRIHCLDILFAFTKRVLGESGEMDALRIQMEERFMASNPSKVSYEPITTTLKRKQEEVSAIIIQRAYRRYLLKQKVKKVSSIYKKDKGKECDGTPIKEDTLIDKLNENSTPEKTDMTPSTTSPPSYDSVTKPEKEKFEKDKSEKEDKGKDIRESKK
In short: as §1

hNaV1.7 = molecular target: T3, hNaV1.7 (Homo sapiens, UniProt Q15858); test: Automated whole-cell patch-clamp (QPatch 16X), hNaV1.7; settings: for IC50: HEK293 cells expressing hNaV1.7 + β1 subunit, QPatch 16X, holding −80 mV, step to 0 mV, peptide incubated 2 min, 0.1% BSA, mean, SEM and n (3-9); for Loss (reduction) in potency vs rSsp1a at hNaV1.7: relative to wild type rSsp1a
T3 construct: host or cells: HEK293
In short: as §1

| Structure (SMILES) | IC50 (hNaV1.3) | IC50 (hNaV1.2) | Loss (reduction) in potency vs rSsp1a at hNaV1.2 (hNaV1.2) | IC50 (hNaV1.7) | Loss (reduction) in potency vs rSsp1a at hNaV1.7 (hNaV1.7) | Activity at hNaV1.3 (in words) (hNaV1.3; alanine mutant vs rSsp1a) |
| --- | --- | --- | --- | --- | --- | --- |
| CC(C)C[C@H](NC(=O)[C@H](CC(=O)O)NC(=O)[C@H](Cc1ccc(O)cc1)NC(=O)[C@H](CCCNC(=N)N)NC(=O)[C@@H]1CSSC[C@@H]2NC(=O)[C@H](CCCCN)NC(=O)[C@H](CC(N)=O)NC(=O)[C@H](CC(N)=O)NC(=O)[C@H](CC(N)=O)NC(=O)[C@@H]3CCCN3C(=O)[C@H](CC(=O)O)NC(=O)[C@@H]3CSSC[C@H](NC(=O)[C@H](C(C)C)NC(=O)[C@H](Cc4ccc(O)cc4)NC(=O)CNC(=O)[C@H](CCC(=O)O)NC(=O)[C@H](CSSC[C@H](NC(=O)[C@H](CC(=O)O)NC(=O)CN)C(=O)N[C@@H](CC(C)C)C(=O)NCC(=O)N[C@@H](Cc4c[nH]c5ccccc45)C(=O)N[C@@H](Cc4ccccc4)C(=O)N[C@@H](CO)C(=O)NCC(=O)N3)NC2=O)C(=O)N[C@@H](Cc2c[nH]cn2)C(=O)N[C@@H](Cc2c[nH]c3ccccc23)C(=O)N[C@@H](CCCCN)C(=O)N[C@@H](Cc2ccc(O)cc2)C(=O)N2CCC[C@H]2C(=O)N[C@@H](C)C(=O)N1)C(=O)O [W28A] (H-GDCLGWFSGCDPNNNKCCEGYVCHWKYPACRYDL-OH; disulfide 3-18, 10-23, 17-30 (inferred); N-terminus and C-terminus assumed) | > 3000 nM | > 3000 nM | ≥ 10 fold | > 3000 nM | ≥ 10 fold | – |
| CC(C)C[C@H](NC(=O)[C@H](CC(=O)O)NC(=O)[C@H](Cc1ccc(O)cc1)NC(=O)[C@H](CCCNC(=N)N)NC(=O)[C@@H]1CSSC[C@@H]2NC(=O)[C@H](CCCCN)NC(=O)[C@H](CC(N)=O)NC(=O)[C@H](CC(N)=O)NC(=O)[C@H](CC(N)=O)NC(=O)[C@@H]3CCCN3C(=O)[C@H](CC(=O)O)NC(=O)[C@@H]3CSSC[C@H](NC(=O)[C@H](C(C)C)NC(=O)[C@H](Cc4ccc(O)cc4)NC(=O)CNC(=O)[C@H](CCC(=O)O)NC(=O)[C@H](CSSC[C@H](NC(=O)[C@H](CC(=O)O)NC(=O)CN)C(=O)N[C@@H](CC(C)C)C(=O)NCC(=O)N[C@@H](Cc4c[nH]c5ccccc45)C(=O)N[C@@H](Cc4ccccc4)C(=O)N[C@@H](CO)C(=O)NCC(=O)N3)NC2=O)C(=O)N[C@@H](Cc2c[nH]cn2)C(=O)N[C@@H](Cc2c[nH]c3ccccc23)C(=O)N[C@@H](CCCCN)C(=O)N[C@@H](Cc2ccc(O)cc2)C(=O)N2CCC[C@H]2C(=O)N[C@@H](Cc2ccccc2)C(=O)N1)C(=O)O [W28F] | > 3000 nM | > 3000 nM | – | 544 nM | – | – |
| CC(C)C[C@H](NC(=O)[C@H](CC(=O)O)NC(=O)[C@H](Cc1ccc(O)cc1)NC(=O)[C@H](CCCNC(=N)N)NC(=O)[C@@H]1CSSC[C@@H]2NC(=O)[C@H](CCCCN)NC(=O)[C@H](CC(N)=O)NC(=O)[C@H](CC(N)=O)NC(=O)[C@H](CC(N)=O)NC(=O)[C@@H]3CCCN3C(=O)[C@H](CC(=O)O)NC(=O)[C@@H]3CSSC[C@H](NC(=O)[C@H](C(C)C)NC(=O)[C@H](Cc4ccc(O)cc4)NC(=O)CNC(=O)[C@H](CCC(=O)O)NC(=O)[C@H](CSSC[C@H](NC(=O)[C@H](CC(=O)O)NC(=O)CN)C(=O)N[C@@H](CC(C)C)C(=O)NCC(=O)N[C@@H](Cc4c[nH]c5ccccc45)C(=O)N[C@@H](Cc4ccccc4)C(=O)N[C@@H](CO)C(=O)NCC(=O)N3)NC2=O)C(=O)N[C@@H](Cc2c[nH]cn2)C(=O)N[C@@H](Cc2c[nH]c3ccccc23)C(=O)N[C@@H](CCCCN)C(=O)N[C@@H](Cc2ccc(O)cc2)C(=O)N2CCC[C@H]2C(=O)N[C@@H](CCCCN)C(=O)N1)C(=O)O [W28K] (H-GDCLGWFSGCDPNNNKCCEGYVCHWKYPKCRYDL-OH; disulfide 3-18, 10-23, 17-30 (inferred); N-terminus and C-terminus assumed) | > 3000 nM | > 3000 nM | – | > 3000 nM | – | – |
| CC(C)C[C@H](NC(=O)[C@H](CC(=O)O)NC(=O)[C@H](Cc1ccc(O)cc1)NC(=O)[C@H](CCCNC(=N)N)NC(=O)[C@@H]1CSSC[C@@H]2NC(=O)[C@H](CCCCN)NC(=O)[C@H](CC(N)=O)NC(=O)[C@H](CC(N)=O)NC(=O)[C@H](CC(N)=O)NC(=O)[C@@H]3CCCN3C(=O)[C@H](CC(=O)O)NC(=O)[C@@H]3CSSC[C@H](NC(=O)[C@H](C(C)C)NC(=O)[C@H](C)NC(=O)CNC(=O)[C@H](CCC(=O)O)NC(=O)[C@H](CSSC[C@H](NC(=O)[C@H](CC(=O)O)NC(=O)CN)C(=O)N[C@@H](CC(C)C)C(=O)NCC(=O)N[C@@H](Cc4c[nH]c5ccccc45)C(=O)N[C@@H](Cc4ccccc4)C(=O)N[C@@H](CO)C(=O)NCC(=O)N3)NC2=O)C(=O)N[C@@H](Cc2c[nH]cn2)C(=O)N[C@@H](Cc2c[nH]c3ccccc23)C(=O)N[C@@H](CCCCN)C(=O)N[C@@H](Cc2ccc(O)cc2)C(=O)N2CCC[C@H]2C(=O)N[C@@H](Cc2c[nH]c3ccccc23)C(=O)N1)C(=O)O [Y20A] | > 3000 nM | 1840 nM | – | 1270 nM | – | inactive |
| CC(C)C[C@H](NC(=O)[C@H](CC(=O)O)NC(=O)[C@H](Cc1ccc(O)cc1)NC(=O)[C@H](CCCNC(=N)N)NC(=O)[C@@H]1CSSC[C@@H]2NC(=O)[C@H](CCCCN)NC(=O)[C@H](CC(N)=O)NC(=O)[C@H](CC(N)=O)NC(=O)[C@H](CC(N)=O)NC(=O)[C@@H]3CCCN3C(=O)[C@H](CC(=O)O)NC(=O)[C@@H]3CSSC[C@H](NC(=O)[C@H](C(C)C)NC(=O)[C@H](CC(C)C)NC(=O)CNC(=O)[C@H](CCC(=O)O)NC(=O)[C@H](CSSC[C@H](NC(=O)[C@H](CC(=O)O)NC(=O)CN)C(=O)N[C@@H](CC(C)C)C(=O)NCC(=O)N[C@@H](Cc4c[nH]c5ccccc45)C(=O)N[C@@H](Cc4ccccc4)C(=O)N[C@@H](CO)C(=O)NCC(=O)N3)NC2=O)C(=O)N[C@@H](Cc2c[nH]cn2)C(=O)N[C@@H](Cc2c[nH]c3ccccc23)C(=O)N[C@@H](CCCCN)C(=O)N[C@@H](Cc2ccc(O)cc2)C(=O)N2CCC[C@H]2C(=O)N[C@@H](Cc2c[nH]c3ccccc23)C(=O)N1)C(=O)O [Y20L] | 476 nM | 340 nM | – | 288 nM | – | – |
| CC(C)C[C@H](NC(=O)[C@H](CC(=O)O)NC(=O)[C@H](Cc1ccc(O)cc1)NC(=O)[C@H](CCCNC(=N)N)NC(=O)[C@@H]1CSSC[C@@H]2NC(=O)[C@H](CCCCN)NC(=O)[C@H](CC(N)=O)NC(=O)[C@H](CC(N)=O)NC(=O)[C@H](CC(N)=O)NC(=O)[C@@H]3CCCN3C(=O)[C@H](CC(=O)O)NC(=O)[C@@H]3CSSC[C@H](NC(=O)[C@H](C(C)C)NC(=O)[C@H](Cc4ccc(O)cc4)NC(=O)CNC(=O)[C@H](CCC(=O)O)NC(=O)[C@H](CSSC[C@H](NC(=O)[C@H](CC(=O)O)NC(=O)CN)C(=O)N[C@@H](CC(C)C)C(=O)NCC(=O)N[C@@H](Cc4c[nH]c5ccccc45)C(=O)N[C@@H](Cc4ccccc4)C(=O)N[C@@H](CO)C(=O)NCC(=O)N3)NC2=O)C(=O)N[C@@H](Cc2c[nH]cn2)C(=O)N[C@@H](Cc2c[nH]c3ccccc23)C(=O)N[C@@H](CCCCN)C(=O)N[C@@H](C)C(=O)N2CCC[C@H]2C(=O)N[C@@H](Cc2c[nH]c3ccccc23)C(=O)N1)C(=O)O [Y26A] (H-GDCLGWFSGCDPNNNKCCEGYVCHWKAPWCRYDL-OH; disulfide 3-18, 10-23, 17-30 (inferred); N-terminus and C-terminus assumed) | > 1000 nM | > 1000 nM | ≥ 10 fold | > 1000 nM | ≥ 10 fold | – |
| CC(C)C[C@H](NC(=O)[C@H](CC(=O)O)NC(=O)[C@H](Cc1ccc(O)cc1)NC(=O)[C@H](CCCNC(=N)N)NC(=O)[C@@H]1CSSC[C@@H]2NC(=O)[C@H](CCCCN)NC(=O)[C@H](CC(N)=O)NC(=O)[C@H](CC(N)=O)NC(=O)[C@H](CC(N)=O)NC(=O)[C@@H]3CCCN3C(=O)[C@H](CC(=O)O)NC(=O)[C@@H]3CSSC[C@H](NC(=O)[C@H](C(C)C)NC(=O)[C@H](Cc4ccc(O)cc4)NC(=O)CNC(=O)[C@H](CCC(=O)O)NC(=O)[C@H](CSSC[C@H](NC(=O)[C@H](CC(=O)O)NC(=O)CN)C(=O)N[C@@H](CC(C)C)C(=O)NCC(=O)N[C@@H](Cc4c[nH]c5ccccc45)C(=O)N[C@@H](Cc4ccccc4)C(=O)N[C@@H](CO)C(=O)NCC(=O)N3)NC2=O)C(=O)N[C@@H](Cc2c[nH]cn2)C(=O)N[C@@H](Cc2c[nH]c3ccccc23)C(=O)N[C@@H](CCCCN)C(=O)N[C@@H](Cc2c[nH]cn2)C(=O)N2CCC[C@H]2C(=O)N[C@@H](Cc2c[nH]c3ccccc23)C(=O)N1)C(=O)O [Y26H] | 484 nM | 369 nM | – | 244 nM | – | – |
| CC(C)C[C@H](NC(=O)[C@H](CC(=O)O)NC(=O)[C@H](C)NC(=O)[C@H](CCCNC(=N)N)NC(=O)[C@@H]1CSSC[C@@H]2NC(=O)[C@H](CCCCN)NC(=O)[C@H](CC(N)=O)NC(=O)[C@H](CC(N)=O)NC(=O)[C@H](CC(N)=O)NC(=O)[C@@H]3CCCN3C(=O)[C@H](CC(=O)O)NC(=O)[C@@H]3CSSC[C@H](NC(=O)[C@H](C(C)C)NC(=O)[C@H](Cc4ccc(O)cc4)NC(=O)CNC(=O)[C@H](CCC(=O)O)NC(=O)[C@H](CSSC[C@H](NC(=O)[C@H](CC(=O)O)NC(=O)CN)C(=O)N[C@@H](CC(C)C)C(=O)NCC(=O)N[C@@H](Cc4c[nH]c5ccccc45)C(=O)N[C@@H](Cc4ccccc4)C(=O)N[C@@H](CO)C(=O)NCC(=O)N3)NC2=O)C(=O)N[C@@H](Cc2c[nH]cn2)C(=O)N[C@@H](Cc2c[nH]c3ccccc23)C(=O)N[C@@H](CCCCN)C(=O)N[C@@H](Cc2ccc(O)cc2)C(=O)N2CCC[C@H]2C(=O)N[C@@H](Cc2c[nH]c3ccccc23)C(=O)N1)C(=O)O [Y31A] | > 1000 nM | 633 nM | – | 254 nM | – | – |
